The EC50 is the concentration at which the effect is half-maximal.

The assay concerns AP-1. The assay can be described thus: Cellular transrepression assay (AP-1 luciferase reporter in A549 cells, PMA activated). The assay is classed as cell-based. Conditions: 7 h, 10 ng/ml PMA; for EC50: read-out: AP-1 (EC50, nM) (measured in cellular transrepression assay); for Emax: read-out: AP-1 Max % inhibition (measured in cellular transrepression assay). The protocol: Cellular Transrepressional Assay
To measure the ability of test molecules to inhibit AP-1 induced transcriptional activity we utilized an A549 cell which was stably transfected with a plasmid containing 7×AP-1 DNA binding sites (pAP-1-Luc plasmid, Stratagene Co. La Jolla, Calif.) followed by the gene for luciferase. Cells were activated with 10 ng/ml of phorbol myristic acid (PMA) plus or minus test molecules for 7 hours. After 7 hours a luciferase reagent was added to measure luciferase enzymatic activity in the cell. After a 10 minute incubation of luciferase reagent with cells, luminescence was measured in a TopCount luminescence counter. Repression of AP-1 activity was calculated as the percentage decrease in the signal induced by PMA alone. Test molecules were analyzed in the concentration range from 0.1 nM to 40 μM. EC50s were determined by using standard curve fitting methods such as Excel fit (Microsoft Co.). An EC50 is the test molecule concentration at which there is a 50% repression of the maximal inhibition of transcription, i.e. a 50% reduction of AP-1 activity.

For the molecule `Cc1ccc2c(n1)Oc1nc(-c3ccc(SC(C)C)cc3)ccc1[C@H]2C(C)(C)C(=O)Nc1nncs1` [Example 27], the EC50 stood at 41.9 nM and the Emax was determined as 32.4%.
The corresponding values for `Cc1ccc2c(n1)Oc1nc(-c3ccc(C(=O)N(C)C)cc3)ccc1C2C(C)(C)C(=O)Nc1nncs1` (stereo not drawn) [Example 10, 4-(5-(1,1-dimethyl-2-oxo-2-(1,3,4-thiadiazol-2-ylamino)ethyl)-8-methyl-5H-pyrido[3′,2′:5,6]pyrano[2,3-b]pyridin-2-yl)-N,N-dimethylbenzamide] are 189 nM and 39%.
Regarding `CCN(C)C(=O)c1ccc(-c2ccc3c(n2)Oc2nc(C)ccc2[C@@H]3C(C)(C)C(=O)Nc2nnc(C(=O)NC3CCC3)s2)cc1` [Example 49], the EC50 came to 98 nM and the Emax amounted to 66.3%.
The corresponding values for `CCC(=O)c1ccc(-c2ccc3c(n2)Oc2nc(C)ccc2[C@@H]3C(C)(C)C(=O)Nc2nncs2)cc1` [Example 76] are 119 nM and 48.5%.
The matching figures for `Cc1ccc2c(n1)Oc1nc(-c3ccc(C(=O)N4CCOCC4)cc3)ccc1C2C(C)(C)C(=O)Nc1nncs1` (stereo not drawn) [Example 15]: 460 nM and 47.4%.
The matching figures for `Cc1ccc2c(n1)Oc1nc(-c3ccc(C(C)(C)O)cc3)ccc1[C@H]2C(C)(C)C(=O)Nc1nncs1` [Example 89]: 21 nM and 46.9%.
For `CCN(C)C(=O)c1ccc(-c2ccc3c(n2)Oc2nc(C)ccc2[C@@H]3C(C)(C)C(=O)Nc2nnc(C)s2)cc1` [Example 35], the 50% effective concentration (EC50) was 175 nM and the Emax turned out to be 45%.
In the case of `CN(C)c1ccc2c(n1)Oc1nc(-c3ccc(C(=O)N4CCOCC4)cc3)ccc1C2C(C)(C)C(=O)Nc1nncs1` (stereo not drawn) [Example 72], the 50% effective concentration (EC50) is 18 nM and the Emax worked out at 48.7%.
Turning to `CN(C)C(=O)c1ccc(-c2ccc3c(n2)Oc2nc(C#N)ccc2C3C(C)(C)C(=O)Nc2nncs2)cc1` (stereo not drawn) [Example 66, 4-(8-cyano-5-(1,1-dimethyl-2-oxo-2-(1,3,4-thiadiazol-2-ylamino)ethyl)-5H-pyrido[3′,2′:5,6]pyrano[2,3-b]pyridin-2-yl)-N,N-dimethylbenzamide], the EC50 was found to be 335 nM and the Emax was found to be 38.9%.
The matching figures for `Cc1ccc2c(n1)Oc1nc(-c3ccc(C(=O)N4CCOCC4)cc3)ccc1[C@H]2C(C)(C)C(=O)Nc1nnc(C(=O)NC2CCOCC2)s1` [Example 88, 5-((2-methyl-2-((5S)-2-methyl-8-(4-(4-morpholinylcarbonyl)phenyl)-5H-pyrano[2,3-b:6,5-b′]dipyridin-5-yl)propanoyl)amino)-N-(tetrahydro-2H-pyran-4-yl)-1,3,4-thiadiazole-2-carboxamide]: 56.9 nM and 32.9%.
The corresponding values for `Cc1ccc2c(n1)Oc1nc(-c3ccc(C(=O)N4CCCC4)cc3)ccc1C2C(C)(C)C(=O)Nc1nncs1` (stereo not drawn) [Example 16] are 541 nM and 40.2%.
As for `Cc1ccc2c(n1)Oc1nc(-c3ccc(OC(C)C)cc3)ccc1[C@H]2C(C)(C)C(=O)Nc1nncs1` [Example 30], the EC50 is 41.6 nM and the Emax was 34.6%.
The corresponding values for `CCOC(=O)c1nnc(NC(=O)C(C)(C)[C@H]2c3ccc(C)nc3Oc3nc(-c4ccc(C(=O)N(C)CC)cc4)ccc32)s1` [Example 32] are 176 nM and 74.3%.
The matching figures for `CC[S+]([O-])c1ccc(-c2ccc3c(n2)Oc2nc(C)ccc2C3C(C)(C)C(=O)Nc2nncs2)cc1` (stereo in doubt) [Example 81, 2-((5S)-2-(4-(ethylsulfinyl)phenyl)-8-methyl-5H-pyrido[3′,2′:5,6]pyrano[2,3-b]pyridin-5-yl)-2-methyl-N-1,3,4-thiadiazol-2-ylpropanamide]: 368 nM and 28.7%.
The corresponding values for `Cc1ccc2c(n1)Oc1nc(-c3ccc(C(=O)N4CCCC4)cc3)ccc1[C@H]2C(C)(C)C(=O)Nc1nncs1` [Example 31] are 376 nM and 49.3%.
`CC(C)Sc1ccc2c(n1)Oc1nc(-c3ccc(C(=O)N(C)C)cc3)ccc1C2C(C)(C)C(=O)Nc1nncs1` (stereo not drawn) [Example 55]: the EC50 came to 354 nM and the Emax turned out to be 30.5%.
The corresponding values for `CCN(C)C(=O)c1ccc(-c2ccc3c(n2)Oc2nc(Cl)ccc2C3C(C)(C)C(=O)Nc2nncs2)cc1` (stereo not drawn) [Example 59] are 15.8 nM and 62.3%.
The matching figures for `CN(C)C(=O)c1ccc(-c2ccc3c(n2)Oc2nc(Cl)ccc2C3C(C)(C)C(=O)Nc2nnc(C(=O)NC3CC3)s2)cc1` (stereo not drawn) [Example 62]: 352 nM and 59.5%.
The matching figures for `Cc1ccc2c(n1)Oc1nc(-c3ccc(C(=O)N4CCC4)cc3)ccc1[C@H]2C(C)(C)C(=O)Nc1nncs1` [Example 38]: 470 nM and 41.9%.
In the case of `Cc1ccc2c(n1)Oc1nc(-c3ccc(C(=O)N4CCOCC4)cc3)ccc1[C@H]2C(C)(C)C(=O)Nc1nnc(C2CC2)s1` [Example 93, N-(5-cyclopropyl-1,3,4-thiadiazol-2-yl)-2-methyl-2-((5 S)-2-methyl-8-(4-(4-morpholinylcarbonyl)phenyl)-5H-pyrido[3′,2′:5,6]pyrano[2,3-b]pyridin-5-yl)propanamide], the EC50 was found to be 167 nM and the Emax came to 44.3%.
In the case of `CC(C)(C(=O)Nc1nncs1)C1c2cccnc2Oc2nc(-c3ccc(C(=O)N4CCOCC4)cc3)ccc21` (stereo not drawn) [Example 5], the EC50 is 142 nM and the Emax amounted to 33.9%.
As to `CN(C)C(=O)c1ccc(-c2ccc3c(n2)Oc2ncccc2C3C(C)(C)C(=O)Nc2nncs2)cc1` (single isomer, unassigned) [Example 8], the EC50 worked out at 194 nM and the Emax came to 45.2%.
The corresponding values for `CCN(C)C(=O)c1ccc(-c2ccc3c(n2)Oc2nc(C)ccc2[C@@H]3C(C)(C)C(=O)Nc2nncs2)cc1` [Example 22] are 81.9 nM and 59.3%.
The matching figures for `CCN(C)C(=O)c1ccc(-c2ccc3c(n2)Oc2ncccc2C3C(C)(C)C(=O)Nc2nncs2)cc1` (single isomer, unassigned) [Example 9]: 66.2 nM and 55.4%.
In the case of `CCNC(=O)c1nnc(NC(=O)C(C)(C)[C@H]2c3ccc(C)nc3Oc3nc(-c4ccc(C(=O)N(C)CC)cc4)ccc32)s1` [Example 48], the EC50 turned out to be 341 nM and the Emax is 59.4%.
For `CN(C)C(=O)c1ccc(-c2ccc3c(n2)Oc2ncccc2C3C(C)(C)C(=O)Nc2nncs2)cc1` (stereo not drawn) [Example 3, 4-(5-(1,1-dimethyl-2-oxo-2-(1,3,4-thiadiazol-2-ylamino)ethyl)-5H-pyrido[3′,2′:5,6]pyrano[2,3-b]pyridin-2-yl)-N,N-dimethylbenzamide], the EC50 came to 189 nM and the Emax was found to be 38.6%.
The matching figures for `Cc1ccc2c(n1)Oc1nc(-c3ccc(C(=O)N(C)C)cc3)ccc1[C@H]2C(C)(C)C(=O)Nc1nnn(C)n1` [Example 94]: 790 nM and 35.9%.
The corresponding values for `CN(C)C(=O)c1ccc(-c2ccc3c(n2)Oc2nc(N(C)C)ccc2C3C(C)(C)C(=O)Nc2nncs2)cc1F` (stereo not drawn) [Example 73, 4-(8-(dimethylamino)-5-(1,1-dimethyl-2-oxo-2-(1,3,4-thiadiazol-2-ylamino)ethyl)-5H-pyrido[3′,2′:5,6]pyrano[2,3-b]pyridin-2-yl)-2-fluoro-N,N-dimethylbenzamide] are 194 nM and 43.4%.
The corresponding values for `CCN(C)C(=O)c1ccc(-c2ccc3c(n2)Oc2nc(C)ccc2[C@@H]3C(C)(C)C(=O)Nc2nnc(C(=O)NC)s2)cc1` [Example 46] are 759 nM and 36%.
Take `CC(C)(C(=O)Nc1nncs1)C1c2ccc(Cl)nc2Oc2nc(-c3ccc(C(=O)N4CCOCC4)cc3)ccc21` (stereo not drawn) [Example 60]: the EC50 was 10.7 nM and the Emax is 57.5%.
The corresponding values for `CCN(C)C(=O)c1ccc(-c2ccc3c(n2)Oc2nc(C)ccc2[C@@H]3C(C)(C)C(=O)Nc2nncs2)cc1F` [Example 21] are 166 nM and 49.7%.
The matching figures for `CN(C)C(=O)c1ccc(-c2ccc3c(n2)Oc2nc(N(C)C)ccc2C3C(C)(C)C(=O)Nc2nncs2)cc1` (stereo not drawn) [Example 67, 4-(8-(dimethylamino)-5-(1,1-dimethyl-2-oxo-2-(1,3,4-thiadiazol-2-ylamino)ethyl)-5H-pyrido[3′,2′:5,6]pyrano[2,3-b]pyridin-2-yl)-N,N-dimethylbenzamide]: 53 nM and 57.9%.
As to `Cc1ccc2c(n1)Oc1nc(-c3ccc(C(=O)N(C)C4CC4)cc3)ccc1[C@H]2C(C)(C)C(=O)Nc1nncs1` [Example 41], the 50% effective concentration (EC50) worked out at 359 nM and the Emax is 39.2%.
With `CCN(C)C(=O)c1ccc(-c2ccc3c(n2)Oc2ncccc2C3C(C)(C)C(=O)Nc2nncs2)cc1` (stereo not drawn) [Example 4], the half-maximal effective concentration (EC50) was found to be 197 nM and the Emax was found to be 46.6%.
The matching figures for `Cc1ccc2c(n1)Oc1nc(-c3ccc(C(=O)N(C)C)cc3)ccc1[C@H]2C(C)(C)C(=O)Nc1nnc(C)s1` [Example 12]: 297 nM and 26.6%.
The matching figures for `CN(C)C(=O)c1ccc(-c2ccc3c(n2)Oc2nc(Cl)ccc2C3C(C)(C)C(=O)Nc2nncs2)cc1` (stereo not drawn) [Example 54, 4-(8-chloro-5-(1,1-dimethyl-2-oxo-2-(1,3,4-thiadiazol-2-ylamino)ethyl)-5H-pyrido[3′,2′:5,6]pyrano[2,3-b]pyridin-2-yl)-N,N-dimethylbenzamide]: 33.8 nM and 59.2%.

The values above are taken from patent US8304539B2, “Fused heteroaryl modulators of glucocorticoid receptor, AP-1, and/or NF-κB activity and use thereof” (Bristol-Myers Squibb Company, priority 2008, dated 2012).
